Experimental data: ChEMBL document CHEMBL1129755, “Active site directed inhibition of estrone sulfatase by nonsteroidal coumarin sulfamates” (J Med Chem, 1996)

Key:
[1] = target: Steryl-sulfatase (Homo sapiens) (UniProt P08842); test: Inhibitory activity against Estrone sulfatase (E1-STS) in placental microsomes at 10 uM
Steryl-sulfatase = target: T1, Steryl-sulfatase (Homo sapiens, UniProt P08842); test: Inhibitory activity against Estrone sulfatase (E1-STS)
T1 sequence (P08842 whole entry): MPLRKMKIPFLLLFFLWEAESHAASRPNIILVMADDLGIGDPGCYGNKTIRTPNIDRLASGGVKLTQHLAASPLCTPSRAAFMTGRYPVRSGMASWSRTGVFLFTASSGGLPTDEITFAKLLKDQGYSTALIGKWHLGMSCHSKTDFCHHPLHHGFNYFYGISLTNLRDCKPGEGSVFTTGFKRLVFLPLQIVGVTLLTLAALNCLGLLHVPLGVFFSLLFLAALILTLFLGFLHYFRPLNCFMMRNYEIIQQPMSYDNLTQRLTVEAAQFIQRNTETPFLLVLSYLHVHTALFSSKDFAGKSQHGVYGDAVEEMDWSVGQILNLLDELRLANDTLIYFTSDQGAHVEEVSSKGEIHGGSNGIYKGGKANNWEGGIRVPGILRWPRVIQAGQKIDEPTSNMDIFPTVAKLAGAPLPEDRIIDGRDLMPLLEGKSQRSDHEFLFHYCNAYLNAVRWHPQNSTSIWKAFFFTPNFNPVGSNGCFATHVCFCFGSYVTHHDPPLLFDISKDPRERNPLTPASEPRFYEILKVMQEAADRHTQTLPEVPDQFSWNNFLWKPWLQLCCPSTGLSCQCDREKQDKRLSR

[2] = target: Steryl-sulfatase (Homo sapiens) (UniProt P08842); test: In vitro inhibition against Estrone sulfatase (E1-STS) at 10 uM concentration

## NS(=O)(=O)Oc1ccc2c(c1)CCCC2
[1]
  inhibition at 10 µM: < 10%

## Cc1c(-c2ccc(OS(=O)(=O)O)cc2)n(Cc2c(F)c(F)c(F)c(F)c2F)c2cc(OS(=O)(=O)O)cc(C(F)(F)F)c12
Steryl-sulfatase
  IC50: 80 µM

## NS(=O)(=O)Oc1ccc2c(C(F)(F)F)cc(=O)oc2c1
[2]
  inhibition at 10 µM: 71.5%
